Results on ten molecules are retold here after ChEMBL document CHEMBL4813911 (J Med Chem, 2020).

The target of test [1] is T1, Lysine-specific histone demethylase 2 (Homo sapiens, UniProt Q8NB78).
T1 sequence (Q8NB78 whole entry): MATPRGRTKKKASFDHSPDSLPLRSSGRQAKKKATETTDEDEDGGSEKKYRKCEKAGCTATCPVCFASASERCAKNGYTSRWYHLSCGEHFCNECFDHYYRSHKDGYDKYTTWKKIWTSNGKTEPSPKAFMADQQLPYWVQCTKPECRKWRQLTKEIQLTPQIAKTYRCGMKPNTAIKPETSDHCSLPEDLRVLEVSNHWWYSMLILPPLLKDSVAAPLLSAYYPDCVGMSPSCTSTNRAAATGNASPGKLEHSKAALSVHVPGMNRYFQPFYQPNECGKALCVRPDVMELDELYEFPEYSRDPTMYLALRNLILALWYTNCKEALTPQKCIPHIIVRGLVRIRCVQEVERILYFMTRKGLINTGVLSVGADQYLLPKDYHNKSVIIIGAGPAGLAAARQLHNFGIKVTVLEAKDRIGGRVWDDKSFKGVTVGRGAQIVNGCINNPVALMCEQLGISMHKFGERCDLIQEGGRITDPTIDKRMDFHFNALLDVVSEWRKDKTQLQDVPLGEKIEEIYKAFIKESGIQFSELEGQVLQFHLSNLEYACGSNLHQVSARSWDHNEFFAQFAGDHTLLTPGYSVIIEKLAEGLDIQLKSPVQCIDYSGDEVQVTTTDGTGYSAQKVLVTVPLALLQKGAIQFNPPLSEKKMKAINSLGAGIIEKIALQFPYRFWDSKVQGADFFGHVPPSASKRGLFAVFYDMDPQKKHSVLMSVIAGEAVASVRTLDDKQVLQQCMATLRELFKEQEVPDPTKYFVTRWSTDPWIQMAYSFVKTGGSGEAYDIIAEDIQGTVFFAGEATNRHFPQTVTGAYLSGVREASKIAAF
As to the kind of experiment: Inhibition of LSD2 (unknown origin) using Lys4-dimethylated H3 (1-20) peptide as substrate incubated for 30 mins by peroxidase-coupled assay.

Test [2] concerns the target T2, Amine oxidase [flavin-containing] A (Homo sapiens, UniProt P21397).
T2 sequence (P21397 whole entry): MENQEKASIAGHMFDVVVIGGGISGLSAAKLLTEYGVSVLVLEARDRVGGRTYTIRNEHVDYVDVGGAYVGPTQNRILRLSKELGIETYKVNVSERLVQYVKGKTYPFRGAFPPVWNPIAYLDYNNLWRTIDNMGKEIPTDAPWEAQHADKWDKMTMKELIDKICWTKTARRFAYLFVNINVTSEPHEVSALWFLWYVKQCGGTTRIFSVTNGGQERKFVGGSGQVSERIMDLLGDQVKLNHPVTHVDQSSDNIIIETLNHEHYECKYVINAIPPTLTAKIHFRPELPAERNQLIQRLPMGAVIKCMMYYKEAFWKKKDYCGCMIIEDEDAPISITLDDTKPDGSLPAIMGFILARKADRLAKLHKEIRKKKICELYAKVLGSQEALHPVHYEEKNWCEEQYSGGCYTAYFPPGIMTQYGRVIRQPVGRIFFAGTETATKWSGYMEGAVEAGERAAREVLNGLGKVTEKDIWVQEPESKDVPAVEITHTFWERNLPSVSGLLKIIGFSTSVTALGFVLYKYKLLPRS
Briefly: Inhibition of human MAO-A expressed in baculovirus infected BTI insect cells using tyramine as substrate incubated for 30 mins by peroxidase-coupled assay.

The target of test [3] is T3, Amine oxidase [flavin-containing] B (Homo sapiens, UniProt P27338).
T3 sequence (P27338 whole entry): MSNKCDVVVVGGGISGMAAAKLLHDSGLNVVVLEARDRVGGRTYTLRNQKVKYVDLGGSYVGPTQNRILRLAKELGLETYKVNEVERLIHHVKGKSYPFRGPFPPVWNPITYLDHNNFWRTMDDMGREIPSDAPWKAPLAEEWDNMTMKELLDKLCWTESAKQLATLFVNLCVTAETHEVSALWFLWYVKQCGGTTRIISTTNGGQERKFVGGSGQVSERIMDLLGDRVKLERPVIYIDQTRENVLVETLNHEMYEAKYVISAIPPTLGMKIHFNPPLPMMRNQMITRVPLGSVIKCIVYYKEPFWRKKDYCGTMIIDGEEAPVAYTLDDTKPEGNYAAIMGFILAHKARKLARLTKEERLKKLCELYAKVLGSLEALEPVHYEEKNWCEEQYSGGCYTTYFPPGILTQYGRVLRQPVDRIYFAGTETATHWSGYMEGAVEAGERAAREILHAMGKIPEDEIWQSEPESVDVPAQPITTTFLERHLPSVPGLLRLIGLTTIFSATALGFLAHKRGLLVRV
As to the kind of experiment: biochemical.

The subject of the next test is HeLa. As to the kind of experiment: Antiproliferative activity against human HeLa cells after 48 hrs by MTT assay. Format: functional. In general terms: Tetrazolium assays rely on reduction of a dye to a coloured formazan, in cell work by metabolically active cells.
For a further test, the system named is HCT-116. As to the kind of experiment: Antiproliferative activity against human HCT116 cells after 48 hrs by MTT assay. It is filed as functional.
A further test deals with PC-3. As to the kind of experiment: Antiproliferative activity against human PC-3 cells after 48 hrs by MTT assay. Format: functional.
In another test the test system is KYSE-150 cell line. Briefly: Antiproliferative activity against human KYSE150 cells after 48 hrs by MTT assay. It is filed as functional.
Another test relates to SH-SY5Y. Briefly: Antiproliferative activity against human SH-SY5Y cells after 48 hrs by MTT assay. It is filed as functional.
In test [4] the target is T2, Amine oxidase [flavin-containing] A. Briefly: Inhibition of human MAO-A expressed in expressed in baculovirus infected BTI insect cells using tyramine as substrate by peroxidase-coupled method.
Test [5] deals with T3, Amine oxidase [flavin-containing] B. Briefly: biochemical. The source holds these as a separate data set.
Test [6] addresses T2, Amine oxidase [flavin-containing] A. As to the kind of experiment: biochemical.
The target is the same in test [7].
For test [8] the target is unchanged. As to the kind of experiment: Inhibition of MAO-A (unknown origin) preincubated for 20 mins using 5-hydroxytryptamine as substrate followed by substrate addition and measured after 60 mins.
Test [9] addresses T3, Amine oxidase [flavin-containing] B. Briefly: Inhibition of MAO-B (unknown origin) using benzylamine as substrate preincubated for 20 mins followed by substrate addition and measured after 60 mins.
In another test the test system is MV4-11. Briefly: Antiproliferative activity against human MV4-11 cells incubated for 6 days by MTS assay. The settings on record: MV4-11, 144 h. Format: functional, cell-based.
Another test deals with LSD1/CoREST complex (Homo sapiens, UniProt O60341). As to the kind of experiment: Inhibition of LSD1/FLAG-tagged CoREST (unknown origin) expressed in HEK293F cells using diMeK4H3(1 to 21) as substrate preincubated for 5 mins followed by substrate addition measured for 5 mins by horseradish peroxidase-coupled assay.
Test [10] is described as follows: Inhibition of HDAC1/FLAG-tagged CoREST (unknown origin) expressed in HEK293F cells using p53 (379 to 382 residues) (RHKK(Ac) as substrate incubated for 30 mins by fluorescence method. The arrangement: species or system Homo sapiens.
Test [11] in a line: Antiproliferative activity against human SCCIC1 cells after 72 hrs by [3H] thymidine incorporation assay. It is filed as functional, cell-based.
Test [12] in a line: Antiproliferative activity against human MET-1 cells after 72 hrs by [3H] thymidine incorporation assay. Format: functional, cell-based. Background: Incorporation of labelled thymidine or its analogues reports DNA synthesis.

Broadly, the Ki is a measure of affinity in units of concentration, obtained from inhibition or displacement. In the case of `NC1CC1c1cc(F)cc(F)c1OCc1ccccc1` (configuration not stated), the inhibition constant Ki in test [1] was over 250 µM; in [2], 71 µM; in test [3] it was 33 µM.
What is called GI50 is the concentration giving 50% growth inhibition. Higher therefore signals lower sensitivity of the cells. `NC1CC1c1cccc(OCC[C@H](NC(=O)c2ccccc2)C(=O)NCc2ccccc2)c1` (some centres not stated): the GI50 in the test with HeLa, with HCT-116, in the test on PC-3, with KYSE-150 cell line and in the test with SH-SY5Y was 6 µM throughout.
For `NC1CC1c1c(F)c(F)c(F)c(F)c1F` (configuration not stated), the Ki in test [4] is 270 µM; in [5], 8.3 µM.
Turning to `NC1CC1c1cccc(F)c1OCc1ccccc1` (configuration not stated), the Ki was 64 µM in [4] and 42 µM in test [5].
As to `O=C(N[C@@H](CCCCNC1CC1c1ccccc1)C(=O)NCc1ccccc1)c1ccccc1` (some centres not stated), the values for the GI50 with HeLa and in the test with SH-SY5Y were 35 µM and 17 µM, respectively.
For `O=C(N[C@@H](CCCCNC1CC1c1ccccc1)C(=O)NCc1cccc(C(F)(F)F)c1)c1ccc(-c2ccccc2)cc1` (some centres not stated), the figures for the 50% growth inhibitory concentration (GI50) in the test with HeLa and with SH-SY5Y were 4.1 µM and 2.4 µM, respectively.
Broadly, the IC50 is the concentration that gives 50% inhibition. Read a high IC50 as weaker potency. With `O=C(N[C@@H](CCCCNC1CC1c1ccccc1)C(=O)NCc1ccccc1)c1ccc(-c2ccccc2)cc1` (some centres not stated), the GI50 was 10 µM in the test with HeLa and over 3.3 µM with SH-SY5Y. Further, the IC50 in [6] is 87 µM.
`CN1CCN(C(=O)CN[C@@H]2C[C@H]2c2ccc(OCc3ccccc3)cc2)CC1` registered an IC50 in test [7] of 0.51 µM.
As to `CCN(CC)S(=O)(=O)c1ccc([C@H]2C[C@@H]2NCc2ccccc2)cc1`, the IC50 is 0.525 µM in test [8], 0.702 µM in test [9] and 15.4 µM with MV4-11.
With `Nc1ccccc1NC(=O)c1ccc(CCCC(=O)Nc2ccc(C3CC3N)cc2)cc1` (configuration not stated), the IC50 is 1.8 µM against LSD1/CoREST complex, 0.23 µM in test [10], 0.041 µM in test [11] and 0.006 µM in [12].
